Data taken from patent US20240093151A1, “DEVICE AND METHOD FOR OBTAINING IMMUNO-STIMULATORY ANTIGEN-PRESENTING CELLS” (Transimmune AG, priority 2015, published 2024).
Ends that are not written are not given here.

Tested on: platelets
Assay: Activation of platelets by plasma protein fragment
Type: cell-based

**Q.** For HHLGGAKQAGDV, which “ability to activate platelets” value is on record?
**A.** able to activate platelets
